Source: PubChem BioAssay (NCI)
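Dose response: 5 concentrations. Exposure: 48 h. Format: 96-well plates. Endpoint: linear interpolation; highest concentration if not reached. The concentration for 50% growth inhibition is given as GI50. TGI denotes the concentration required for complete inhibition of growth.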

Legend:
Test in all cases: growth of human tumour cells (NCI), 48 h
786-0 renal = test system: 786-0 renal
A498 renal = test system: A498 renal
A549 NSCLC = test system: A549 NSCLC
ACHN renal = test system: ACHN renal
BT-549 breast = test system: BT-549 breast
CAKI-1 renal = test system: CAKI-1 renal
CCRF-CEM leukemia = test system: CCRF-CEM leukemia
COLO 205 colon = test system: COLO 205 colon
DU-145 prostate = test system: DU-145 prostate
EKVX NSCLC = test system: EKVX NSCLC
HCC-2998 colon = test system: HCC-2998 colon
HCT-116 colon = test system: HCT-116 colon
HCT-15 colon = test system: HCT-15 colon
HL-60(TB) leukemia = test system: HL-60(TB) leukemia
HOP-62 NSCLC = test system: HOP-62 NSCLC
HOP-92 NSCLC = test system: HOP-92 NSCLC
HS 578T breast = test system: HS 578T breast
HT29 colon = test system: HT29 colon
IGROV1 ovarian = test system: IGROV1 ovarian
K-562 leukemia = test system: K-562 leukemia
KM12 colon = test system: KM12 colon
LOX IMVI melanoma = test system: LOX IMVI melanoma
M14 melanoma = test system: M14 melanoma
MALME-3M melanoma = test system: MALME-3M melanoma
MCF7 breast = test system: MCF7 breast
MDA-MB-231 breast = test system: MDA-MB-231 breast
MDA-MB-435 = test system: MDA-MB-435
MOLT-4 leukemia = test system: MOLT-4 leukemia
NCI-H226 lung = test system: NCI-H226 lung
NCI-H23 lung = test system: NCI-H23 lung
NCI-H460 lung = test system: NCI-H460 lung
NCI-H522 lung = test system: NCI-H522 lung
NCI/ADR-RES ovarian = test system: NCI/ADR-RES ovarian
OVCAR-3 ovarian = test system: OVCAR-3 ovarian
OVCAR-4 ovarian = test system: OVCAR-4 ovarian
OVCAR-5 ovarian = test system: OVCAR-5 ovarian
OVCAR-8 ovarian = test system: OVCAR-8 ovarian
PC-3 prostate = test system: PC-3 prostate
RPMI-8226 leukemia = test system: RPMI-8226 leukemia
RXF 393 renal = test system: RXF 393 renal
SF-268 CNS = test system: SF-268 CNS
SF-295 CNS = test system: SF-295 CNS
SF-539 CNS = test system: SF-539 CNS
SK-MEL-2 melanoma = test system: SK-MEL-2 melanoma
SK-MEL-28 melanoma = test system: SK-MEL-28 melanoma
SK-MEL-5 melanoma = test system: SK-MEL-5 melanoma
SK-OV-3 ovarian = test system: SK-OV-3 ovarian
SN12C renal = test system: SN12C renal
SNB-19 CNS = test system: SNB-19 CNS
SNB-75 CNS = test system: SNB-75 CNS
SW-620 colon = test system: SW-620 colon
T-47D breast = test system: T-47D breast
TK-10 renal = test system: TK-10 renal
U251 CNS = test system: U251 CNS
UACC-257 melanoma = test system: UACC-257 melanoma
UACC-62 melanoma = test system: UACC-62 melanoma
UO-31 renal = test system: UO-31 renal

SMILES: C=C(C)[C@@H]1CC[C@]2(COC(C)=O)CC[C@]3(C)[C@H](CC[C@@H]4[C@@]5(C)CCCN(C(C)=O)C(C)(C)[C@@H]5CC[C@]43C)[C@@H]12
- GI50 (786-0 renal): 1750 nM
- TGI (786-0 renal): 3220 nM
- GI50 (A498 renal): 9840 nM
- TGI (A498 renal): 23400 nM
- GI50 (A549 NSCLC): 1690 nM
- TGI (A549 NSCLC): 3230 nM
- GI50 (ACHN renal): 1700 nM
- TGI (ACHN renal): 3070 nM
- GI50 (BT-549 breast): 2410 nM
- TGI (BT-549 breast): 6410 nM
- GI50 (CAKI-1 renal): 1580 nM
- TGI (CAKI-1 renal): 2960 nM
- GI50 (CCRF-CEM leukemia): 1870 nM
- TGI (CCRF-CEM leukemia): 4950 nM
- GI50 (COLO 205 colon): 1190 nM
- TGI (COLO 205 colon): 2550 nM
- GI50 (DU-145 prostate): 1750 nM
- TGI (DU-145 prostate): 3290 nM
- GI50 (EKVX NSCLC): 1580 nM
- TGI (EKVX NSCLC): 3200 nM
- GI50 (HCC-2998 colon): 1670 nM
- TGI (HCC-2998 colon): 3160 nM
- GI50 (HCT-116 colon): 1770 nM
- TGI (HCT-116 colon): 3310 nM
- GI50 (HCT-15 colon): 1650 nM
- TGI (HCT-15 colon): 3050 nM
- GI50 (HL-60(TB) leukemia): 1900 nM
- TGI (HL-60(TB) leukemia): 3820 nM
- GI50 (HOP-62 NSCLC): 1690 nM
- TGI (HOP-62 NSCLC): 3160 nM
- GI50 (HOP-92 NSCLC): 1310 nM
- TGI (HOP-92 NSCLC): 2700 nM
- GI50 (HS 578T breast): 1850 nM
- TGI (HS 578T breast): 4050 nM
- GI50 (HT29 colon): 1520 nM
- TGI (HT29 colon): 2950 nM
- GI50 (IGROV1 ovarian): 1810 nM
- TGI (IGROV1 ovarian): 3370 nM
- GI50 (K-562 leukemia): 1580 nM
- TGI (K-562 leukemia): 4140 nM
- GI50 (KM12 colon): 1830 nM
- TGI (KM12 colon): 3420 nM
- GI50 (LOX IMVI melanoma): 1450 nM
- TGI (LOX IMVI melanoma): 2760 nM
- GI50 (M14 melanoma): 1900 nM
- TGI (M14 melanoma): 3920 nM
- GI50 (MALME-3M melanoma): 1570 nM
- TGI (MALME-3M melanoma): 3050 nM
- GI50 (MCF7 breast): 1450 nM
- TGI (MCF7 breast): 3130 nM
- GI50 (MDA-MB-231 breast): 1750 nM
- TGI (MDA-MB-231 breast): 3460 nM
- GI50 (MDA-MB-435): 1480 nM
- TGI (MDA-MB-435): 2850 nM
- GI50 (MOLT-4 leukemia): 1840 nM
- TGI (MOLT-4 leukemia): 4200 nM
- GI50 (NCI-H226 lung): 2200 nM
- TGI (NCI-H226 lung): 5040 nM
- GI50 (NCI-H23 lung): 1890 nM
- TGI (NCI-H23 lung): 3530 nM
- GI50 (NCI-H460 lung): 1900 nM
- TGI (NCI-H460 lung): 3720 nM
- GI50 (NCI-H522 lung): 1650 nM
- TGI (NCI-H522 lung): 3240 nM
- GI50 (NCI/ADR-RES ovarian): 1890 nM
- TGI (NCI/ADR-RES ovarian): 3680 nM
- GI50 (OVCAR-3 ovarian): 1930 nM
- TGI (OVCAR-3 ovarian): 3750 nM
- GI50 (OVCAR-4 ovarian): 1570 nM
- TGI (OVCAR-4 ovarian): 3130 nM
- GI50 (OVCAR-5 ovarian): 1660 nM
- TGI (OVCAR-5 ovarian): 3190 nM
- GI50 (OVCAR-8 ovarian): 1840 nM
- TGI (OVCAR-8 ovarian): 3420 nM
- GI50 (PC-3 prostate): 1580 nM
- TGI (PC-3 prostate): 3230 nM
- GI50 (RPMI-8226 leukemia): 1980 nM
- TGI (RPMI-8226 leukemia): 4190 nM
- GI50 (RXF 393 renal): 1590 nM
- TGI (RXF 393 renal): 3020 nM
- GI50 (SF-268 CNS): 3370 nM
- TGI (SF-268 CNS): 13500 nM
- GI50 (SF-295 CNS): 1690 nM
- TGI (SF-295 CNS): 3120 nM
- GI50 (SF-539 CNS): 1670 nM
- TGI (SF-539 CNS): 3060 nM
- GI50 (SK-MEL-2 melanoma): 1880 nM
- TGI (SK-MEL-2 melanoma): 3540 nM
- GI50 (SK-MEL-28 melanoma): 1820 nM
- TGI (SK-MEL-28 melanoma): 3330 nM
- GI50 (SK-MEL-5 melanoma): 1780 nM
- TGI (SK-MEL-5 melanoma): 3190 nM
- GI50 (SK-OV-3 ovarian): 1970 nM
- TGI (SK-OV-3 ovarian): 4190 nM
- GI50 (SN12C renal): 1750 nM
- TGI (SN12C renal): 3330 nM
- GI50 (SNB-19 CNS): 1810 nM
- TGI (SNB-19 CNS): 3270 nM
- GI50 (SNB-75 CNS): 1480 nM
- TGI (SNB-75 CNS): 2880 nM
- GI50 (SW-620 colon): 1750 nM
- TGI (SW-620 colon): 3470 nM
- GI50 (T-47D breast): 1630 nM
- TGI (T-47D breast): 3220 nM
- GI50 (TK-10 renal): 1710 nM
- TGI (TK-10 renal): 3180 nM
- GI50 (U251 CNS): 1690 nM
- TGI (U251 CNS): 3150 nM
- GI50 (UACC-257 melanoma): 1740 nM
- TGI (UACC-257 melanoma): 3310 nM
- GI50 (UACC-62 melanoma): 1790 nM
- TGI (UACC-62 melanoma): 3230 nM
- GI50 (UO-31 renal): 1380 nM
- TGI (UO-31 renal): 2680 nM
